Where “and” joins values, the source holds several entries; their conditions need not be identical. Equal entries are not always repeated. Toxic doses and inconclusive results are not listed. Cut-off read from the data, not from the text of the source: active = T/C of 150% or more; inactive = T/C below 125%.
Tested on: L1210 leukemia ip in BDF1 mice, survival T/C
Test: NCI In Vivo Anticancer Drug Screen. Data for tumor model L1210 Leukemia (intraperitoneal) in B6D2F1 (BDF1) mice
Details: endpoint: mean survival time, higher = longer survival
Procedure, shortened: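 Ratio derived from survival: compound-dosed mice over vehicle-dosed mice, all bearing a transplantable tumor.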

[1] = dose: 100.0 mg/kg/injection, schedule: Q01DX001 (ip), vehicle: Klucel (hydroxypropylcellulose) (HPC)
[2] = dose: 200.0 mg/kg/injection, schedule: Q01DX001 (ip), vehicle: Klucel (hydroxypropylcellulose) (HPC)
[3] = dose: 100.0 mg/kg/injection, schedule: Q01DX001 (ip), vehicle: saline
[4] = dose: 200.0 mg/kg/injection, schedule: Q01DX001 (ip), vehicle: saline
[5] = dose: 100.0 mg/kg/injection, schedule: Q01DX009 (ip), vehicle: Klucel (hydroxypropylcellulose) (HPC)
[6] = dose: 100.0 mg/kg/injection, schedule: Q04DX003 (ip), vehicle: Klucel (hydroxypropylcellulose) (HPC)
[7] = dose: 200.0 mg/kg/injection, schedule: Q01DX009 (ip), vehicle: Klucel (hydroxypropylcellulose) (HPC)
[8] = dose: 200.0 mg/kg/injection, schedule: Q04DX003 (ip), vehicle: Klucel (hydroxypropylcellulose) (HPC)
[9] = dose: 400.0 mg/kg/injection, schedule: Q01DX009 (ip), vehicle: Klucel (hydroxypropylcellulose) (HPC)
[10] = dose: 400.0 mg/kg/injection, schedule: Q04DX003 (ip), vehicle: Klucel (hydroxypropylcellulose) (HPC)
[11] = dose: 100.0 mg/kg/injection, schedule: Q04DX003 (ip), vehicle: saline with Tween-80
[12] = dose: 200.0 mg/kg/injection, schedule: Q04DX003 (ip), vehicle: saline with Tween-80
[13] = dose: 400.0 mg/kg/injection, schedule: Q04DX003 (ip), vehicle: saline with Tween-80
[14] = dose: 100.0 mg/kg/injection, schedule: Q04DX003 (ip), vehicle: saline
[15] = dose: 200.0 mg/kg/injection, schedule: Q04DX003 (ip), vehicle: saline
[16] = dose: 400.0 mg/kg/injection, schedule: Q01DX001 (ip), vehicle: saline
[17] = dose: 400.0 mg/kg/injection, schedule: Q01DX001 (ip), vehicle: Klucel (hydroxypropylcellulose) (HPC)

Measured: T/C

CCCCCCCCCCC(=O)O
inactive: [1] 105 % of control | [2] 105 % of control | dose: 300.0 mg/kg/injection, schedule: Q01DX001 (ip), vehicle: Klucel (hydroxypropylcellulose) (HPC) 101 % of control

Cc1ccc(S(=O)(=O)NCCC(=N)N)cc1
inactive: [3] 93 % of control | [4] 101 % of control

CCCCNC(=O)Nc1ccc(OC)cc1
inactive: [5] 103 % of control | [6] 96 % of control | [7] 92 % of control | [8] 93 % of control | [9] 90 % of control | [10] 102 % of control

CSCCNC(=O)CS(=O)(=O)c1ccc(C)cc1
inactive: [11] 100 % of control | [12] 100 % of control | [13] 92 % of control

COC(=O)C(C)CC(C)(C=O)OC (configuration not stated)
inactive: [14] 93 % of control | [15] 89 % of control | dose: 400.0 mg/kg/injection, schedule: Q04DX003 (ip), vehicle: saline 89 % of control

N#Cc1cc(Cl)c2c(c1Cl)Nc1c(Cl)ccc(Cl)c1S2
inactive: dose: 50.0 mg/kg/injection, schedule: Q01DX001 (ip), vehicle: saline 96 % of control | [3] 96 % of control | [4] 96 % of control | [16] 102 % of control

Nc1nc(SCC(=O)c2ccc(Cl)cc2)c2c(n1)SCC(c1ccc(Cl)cc1)=N2
inactive: dose: 100.0 mg/kg/injection, schedule: Q01DX001 (ip), vehicle: saline with Tween-80 97 % of control | dose: 200.0 mg/kg/injection, schedule: Q01DX001 (ip), vehicle: saline with Tween-80 101 % of control | dose: 400.0 mg/kg/injection, schedule: Q01DX001 (ip), vehicle: saline with Tween-80 92 % of control

CC(=O)C1CCCC23CC(CC12)C(C)(C)C3Br (configuration not stated)
inactive: [6] 100 % of control | [8] 103 % of control | [10] 97 % of control

CC(C)=CCC(=O)NC(=O)NS(=O)(=O)c1ccc(C)cc1
inactive: dose: 10.2 mg/kg/injection, schedule: Q01DX009 (ip), vehicle: Klucel (hydroxypropylcellulose) (HPC) 100 % of control | [5] 96 % of control | [6] 100 % of control | [7] 100 % of control | [8] 102 % of control | [10] 101 % of control

O=[N+]([O-])c1cc(C(F)(F)F)ccc1Oc1ccccc1
inactive: [11] 95 % of control | [12] 110 % of control | [13] 101 % of control

S=C(c1ccccc1)N1CCOCC1
inactive: dose: 100.0 mg/kg/injection, schedule: Q04DX002 (ip), vehicle: Klucel (hydroxypropylcellulose) (HPC) 100 % of control | dose: 200.0 mg/kg/injection, schedule: Q04DX002 (ip), vehicle: Klucel (hydroxypropylcellulose) (HPC) 111 % of control | dose: 400.0 mg/kg/injection, schedule: Q04DX002 (ip), vehicle: Klucel (hydroxypropylcellulose) (HPC) 96 % of control

COCCOCCOC(C)Oc1ccc(C(=O)OC)cc1 (configuration not stated)
inactive: dose: 100.0 mg/kg/injection, schedule: Q04DX002 (ip), vehicle: saline 105 % of control | dose: 200.0 mg/kg/injection, schedule: Q04DX002 (ip), vehicle: saline 92 % of control | dose: 400.0 mg/kg/injection, schedule: Q04DX002 (ip), vehicle: saline 108 % of control

NC(Cc1nccn1Cc1ccccc1)C(=O)O (configuration not stated)
inactive: dose: 75.0 mg/kg/injection, schedule: Q04DX002 (ip), vehicle: saline with Tween-80 104 % of control | dose: 150.0 mg/kg/injection, schedule: Q04DX002 (ip), vehicle: saline with Tween-80 112 % of control | dose: 300.0 mg/kg/injection, schedule: Q04DX002 (ip), vehicle: saline with Tween-80 119 % of control

Cc1cc(C)c(C(Br)C(Br)c2c(C)cc(C)cc2C)c(C)c1 (configuration not stated)
inactive: dose: 12.5 mg/kg/injection, schedule: Q01DX009 (ip), vehicle: saline with Tween-80 88 % of control | dose: 12.5 mg/kg/injection, schedule: Q04DX003 (ip), vehicle: saline with Tween-80 98 % of control | dose: 25.0 mg/kg/injection, schedule: Q01DX009 (ip), vehicle: saline with Tween-80 87 % of control | dose: 25.0 mg/kg/injection, schedule: Q04DX003 (ip), vehicle: saline with Tween-80 93 % of control | dose: 50.0 mg/kg/injection, schedule: Q04DX003 (ip), vehicle: saline with Tween-80 91 % of control

CN=NC(OC(C)=O)(c1ccccc1)c1ccccc1
inactive: [1] 101 % of control | [5] 100 % of control | [6] 108 % of control | [2] 95 % of control | [7] 97 % of control | [8] 103 % of control | [17] 94 % of control | [9] 105 % of control | [10] 101 % of control

Cc1ccccc1/C(=C/c1ccc([N+](=O)[O-])cc1)C(=O)O
inactive: [5] 95 % of control | [7] 108 % of control | [9] 104 % of control

COc1ccc(CCNCC(O)CSc2cccc(C)c2)cc1OC (configuration not stated)
inactive: dose: 75.0 mg/kg/injection, schedule: Q01DX001 (ip), vehicle: saline 101 % of control | dose: 150.0 mg/kg/injection, schedule: Q01DX001 (ip), vehicle: saline 95 % of control

COc1ccc(C[C@H]2NC[C@H](O)[C@H]2OC(C)=O)cc1
inactive: dose: 25.0 mg/kg/injection, schedule: Q01DX Z (ip), vehicle: saline 109 % of control | dose: 50.0 mg/kg/injection, schedule: Q01DX Z (ip), vehicle: saline 102 % of control | dose: 100.0 mg/kg/injection, schedule: Q01DX Z (ip), vehicle: saline 109 % of control | dose: 200.0 mg/kg/injection, schedule: Q01DX Z (ip), vehicle: saline 92 % of control and 107 % of control

CN(C)c1ccc(P(c2ccc(N(C)C)cc2)c2ccc(N(C)C)cc2)cc1
inactive: [5] 91 % of control | [6] 95 % of control | [7] 91 % of control | [8] 95 % of control | [9] 87 % of control | [10] 95 % of control

O=S(=O)(Nc1nccs1)c1ccc(NN=Nc2c(Cl)cc(Cl)cc2Cl)cc1
inactive: [5] 96 % of control | [7] 96 % of control | [9] 97 % of control

CCS(=O)(=O)/C=C/c1ccc(Cl)c(Cl)c1
inactive: [6] 110 % of control | [8] 97 % of control | [10] 107 % of control

CCCCN1C(=O)C2CC=C3C=CN4C(C3C2C1=O)C1C(=O)N(CCCC)C(=O)C1C41CC(=O)N(CCCC)C1=O (configuration not stated)
inactive: dose: 12.5 mg/kg/injection, schedule: Q01DX009 (ip), vehicle: Klucel (hydroxypropylcellulose) (HPC) 101 % of control | dose: 25.0 mg/kg/injection, schedule: Q01DX009 (ip), vehicle: Klucel (hydroxypropylcellulose) (HPC) 104 % of control | dose: 50.0 mg/kg/injection, schedule: Q01DX009 (ip), vehicle: Klucel (hydroxypropylcellulose) (HPC) 91 % of control | [5] 86 % of control | [6] 89 % of control | [7] 91 % of control | [8] 90 % of control | [10] 92 % of control

Cc1ccc([N+](=O)[O-])c(P(=O)(O)O)c1
inactive: [11] 100 % of control

[CH3][Sb]1([CH3])([I])[CH2]CCC[CH2]1
inactive: [14] 97 % of control | [15] 97 % of control

OCCCCCCCCCCO
inactive: dose: 100.0 mg/kg/injection, schedule: Q01DX009 (ip), vehicle: carboxymethylcellulose (CMC) 104 % of control | dose: 200.0 mg/kg/injection, schedule: Q01DX009 (ip), vehicle: carboxymethylcellulose (CMC) 106 % of control | dose: 400.0 mg/kg/injection, schedule: Q01DX009 (ip), vehicle: carboxymethylcellulose (CMC) 98 % of control

O=C(/C=C/C(=O)Oc1ccc(Cl)cc1)Oc1ccc(Cl)cc1
inactive: [1] 96 % of control | [5] 102 % of control | [6] 97 % of control | [2] 101 % of control | [7] 102 % of control | [8] 108 % of control | [17] 99 % of control | [9] 100 % of control | [10] 107 % of control

Cc1ccc(S(N)(=O)=O)cc1
inactive: [11] 98 % of control | [12] 98 % of control | [13] 96 % of control

O=C(O)CC(C[N+](=O)[O-])C(F)(F)C(F)(F)C(F)(F)F (configuration not stated)
inactive: [3] 97 % of control | [4] 112 % of control | [16] 101 % of control

CCc1ncc(C(C)(O)c2ccc(Cl)cc2)n1Cc1ccccc1 (configuration not stated)
inactive: [6] 94 % of control | [8] 92 % of control | [10] 89 % of control

Cc1cc([N+](=O)[O-])c([N+](=O)[O-])cc1Cl
inactive: dose: 50.0 mg/kg/injection, schedule: Q01DX009 (ip), vehicle: saline with Tween-80 115 % of control | [1] 105 % of control | dose: 100.0 mg/kg/injection, schedule: Q01DX009 (ip), vehicle: saline with Tween-80 115 % of control | [2] 115 % of control | dose: 200.0 mg/kg/injection, schedule: Q01DX009 (ip), vehicle: saline with Tween-80 109 % of control
